Data reported in patent publication US10406207B2, “Peptide conjugates of GLP-1 receptor agonists and gastrin and their use” (priority 2010, dated 2019).
Bridge positions count the residues as written; N and C are the ends. Square brackets hold non-standard residues; d marks the D form. Peptide text beside a SMILES is read from it. AEEA = NCCOCCOCC(=O)O

Legend:
human GLP-1 R = biological target: T1, human GLP-1 R (Homo sapiens, UniProt P43220); assay: Human GLP-1 receptor efficacy assay (cAMP induction, FlashPlate); type: cell-based; details: Table 2; read-out: hGLP-1 R EC50
T1 construct: expressed in transfected cells
T1 sequence (P43220 24-463): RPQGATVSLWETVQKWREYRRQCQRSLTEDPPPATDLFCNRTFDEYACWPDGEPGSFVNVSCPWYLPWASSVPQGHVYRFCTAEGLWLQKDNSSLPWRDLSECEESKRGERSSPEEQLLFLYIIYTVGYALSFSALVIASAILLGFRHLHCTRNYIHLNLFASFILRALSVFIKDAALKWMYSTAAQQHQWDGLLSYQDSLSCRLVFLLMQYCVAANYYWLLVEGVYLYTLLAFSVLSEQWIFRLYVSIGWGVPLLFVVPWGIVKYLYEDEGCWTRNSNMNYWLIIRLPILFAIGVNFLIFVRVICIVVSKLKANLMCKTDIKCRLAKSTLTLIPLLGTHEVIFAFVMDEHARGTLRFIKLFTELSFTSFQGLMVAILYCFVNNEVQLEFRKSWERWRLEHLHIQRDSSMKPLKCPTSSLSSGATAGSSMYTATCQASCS
Protocol: On the day of analysis, growth medium was removed and the cells were washed once with 200 μl Tyrode buffer [Tyrode's Salts (9.6 g/l), 10 mM HEPES, pH 7.4]. […] The reaction was stopped by addition of 25 μl 0.5 M HCl and incubated on ice for 60 min.

human CCK-B R = biological target: T2, human CCK-B R (Homo sapiens, UniProt P32239); assay: Human CCK-B receptor efficacy assay (AlphaScreen SureFire p-ERK); type: cell-based; details: Table 2; read-out: hCCK-B R EC50
T2 construct: expressed in transfected cells
T2 sequence (P32239 1-447): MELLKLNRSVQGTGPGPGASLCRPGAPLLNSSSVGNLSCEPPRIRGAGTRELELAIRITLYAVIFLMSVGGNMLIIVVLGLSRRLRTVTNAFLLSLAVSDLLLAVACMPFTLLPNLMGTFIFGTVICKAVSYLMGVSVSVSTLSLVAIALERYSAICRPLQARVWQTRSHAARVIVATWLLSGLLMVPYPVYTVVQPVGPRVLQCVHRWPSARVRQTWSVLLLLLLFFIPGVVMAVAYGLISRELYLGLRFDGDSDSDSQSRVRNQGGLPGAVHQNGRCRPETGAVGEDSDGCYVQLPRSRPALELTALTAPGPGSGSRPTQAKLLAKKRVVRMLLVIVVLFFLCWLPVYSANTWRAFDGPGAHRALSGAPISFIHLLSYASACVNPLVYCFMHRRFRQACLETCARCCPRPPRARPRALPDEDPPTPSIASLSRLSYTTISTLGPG
Protocol: CCK-B Receptor (CCK-B R) Efficacy Assay:
In vitro effects of peptide conjugates of the invention were estimated by measuring p-ERK (using the AlphaScreen™ SureFire p-ERK assay) in HEK293 cells stably expressing the human and mouse CCK-B R (high-affinity Gastrin receptor), respectively. The Gastrin receptor efficacy assays (AlphaScreen™ SureFire p-ERK assay) were performed as follows:
The CCK-B R expressing cells in question were seeded at 20,000 cells/well in 100 μl growth medium [DMEM, 10% FCS, Penicillin (100 IU/ml), Streptomycin (100 μg/ml)] in a 96-well plate coated with poly-D-lysine. The cells were incubated in an incubator (37° C., 5% 002) for two days.
The growth medium was changed to 80 μl of serum-free medium [DMEM, Penicillin (100 IU/ml), Streptomycin (100 μg/ml)] per well, and incubation of the cells was continued for 19 hours in the incubator (37° C., 5% CO2).
After 19 hours, 20 μl of serum-free medium containing one of 5 different concentrations of peptide conjugate was added (performed in triplicate for each concentration), and the cells were incubated for 5 min. at room temperature. • 2. The stimulation medium was discarded by quickly turning the plate upside down, and 60 μl 1× lysis buffer (from the SureFire assay kit) was added per well. • 3. The plate was shaken on a plate-shaker for 5 min and then placed on ice. • 4. SureFire P-ERK assay: 4 μl of each supernatant was transferred to a 384 well proxiplate (Perkin Elmer). • 5. 4 μl of each of the two control lysates (unstimulated and stimulated) were added to the proxiplate in duplicate. • 6. […] 7 μl of the latter reaction buffer+activation buffer+beads per well were added in the proxiplate, the mix being resuspended carefully before addition to the wells. • 7. The plate was incubated for 2 hours in a dark box in a 22° C. incubator. • 8. The plate was analyzed on an Envision™ light-emission plate reader (Perkin-Elmer) using the appropriate reading program (Perkin-Elmer).

in vivo = assay: in vivo; parameters: species or system C57Bl mice; details: mouse, sc, 100 nmol/kg; for half-life: C57Bl
Protocol: Two C57Bl mice were given a single subcutaneous dose of 100 nmol/kg of each peptide. […] At each time point, samples from two mice were taken. Plasma samples were analyzed after solid phase extraction (SPE) by liquid chromatography mass spectrometry (LC-MS/MS).

EC50 (human GLP-1 R)	EC50 (human CCK-B R)	half-life (in vivo)	Half-life and exposure (in words) (in vivo)	Structure (SMILES)
0.032 nM	4 nM	1.9 h		CC[C@H](C)[C@@H]1NC(=O)[C@H](Cc2ccccc2)NC(=O)[C@H](CC(C)C)NC(=O)[C@@H](NC(=O)[C@@H](NC(=O)[C@H](C)NC(=O)[C@H](CCC(=O)O)NC(=O)[C@H](CCC(=O)O)NC(=O)[C@H](CCC(=O)O)NC(=O)[C@H](CCSC)NC(=O)[C@H](CCC(N)=O)NC(=O)[C@H](CCCCN)NC(=O)[C@H](CO)NC(=O)[C@H](CC(C)C)NC(=O)[C@H](CC(=O)O)NC(=O)[C@H](CO)NC(=O)[C@@H](NC(=O)[C@H](Cc2ccccc2)NC(=O)[C@@H](NC(=O)CNC(=O)[C@H](CCC(=O)O)NC(=O)CNC(=O)[C@@H](N)Cc2c[nH]cn2)[C@@H](C)O)[C@@H](C)O)C(C)C)CCCCNC(=O)CC[C@@H](C(=O)N[C@@H](Cc2c[nH]c3ccccc23)C(=O)N[C@@H](CC(C)C)C(=O)N[C@@H](CCCCN)C(=O)N[C@@H](CC(N)=O)C(=O)NCCOCCOCC(=O)NCCOCCOCC(=O)N[C@@H](Cc2ccc(O)cc2)C(=O)NCC(=O)N[C@@H](Cc2c[nH]c3ccccc23)C(=O)N[C@@H](CC(C)C)C(=O)N[C@@H](CC(=O)O)C(=O)N[C@@H](Cc2ccccc2)C(N)=O)NC1=O [Compound 80, Side chain-cyclo([Lys20,Glu24]Exendin-4(1-28)-Peg3-Peg3-[Leu4]Gastrin6] (H-HGEGTFTSDLSKQMEEEAVKLFIEWLKN[AEEA][AEEA]YGWLDF-NH2; lactam 20-24)
0.035 nM	8.4 nM	2.5 h		CC[C@H](C)[C@H](NC(=O)[C@H](Cc1ccccc1)NC(=O)[C@H](CC(C)C)NC(=O)[C@H](CCCNC(=N)N)NC(=O)[C@@H](NC(=O)[C@H](C)NC(=O)[C@H](CCC(=O)O)NC(=O)[C@H](CCC(=O)O)NC(=O)[C@H](CCC(=O)O)NC(=O)[C@H](CCSC)NC(=O)[C@H](Cc1ccc(O)cc1)NC(=O)[C@H](CCCCN)NC(=O)[C@H](CO)NC(=O)[C@H](CC(C)C)NC(=O)[C@H](CC(=O)O)NC(=O)[C@H](CO)NC(=O)[C@@H](NC(=O)[C@H](Cc1ccccc1)NC(=O)[C@@H](NC(=O)CNC(=O)[C@H](CCC(=O)O)NC(=O)CNC(=O)[C@@H](N)Cc1c[nH]cn1)[C@@H](C)O)[C@@H](C)O)C(C)C)C(=O)N[C@@H](CCC(=O)O)C(=O)N[C@@H](Cc1ccccc1)C(=O)N[C@@H](CC(C)C)C(=O)N[C@@H](CCCCN)C(=O)NCCOCCOCC(=O)NCCOCCOCC(=O)N[C@@H](Cc1ccc(O)cc1)C(=O)NCC(=O)N[C@@H](Cc1c[nH]c2ccccc12)C(=O)N[C@@H](CC(C)C)C(=O)N[C@@H](CC(=O)O)C(=O)N[C@@H](Cc1ccccc1)C(N)=O [Compound 75, [Tyr13,Phe25]Exendin-4(1-27)-Peg3-Peg3-[Leu4]Gastrin6] (H-HGEGTFTSDLSKYMEEEAVRLFIEFLK[AEEA][AEEA]YGWLDF-NH2)
0.044 nM		3.1 h	superior to the rest	CC[C@H](C)[C@H](NC(=O)[C@H](Cc1ccccc1)NC(=O)[C@H](CC(C)C)NC(=O)[C@H](CCCNC(=N)N)NC(=O)[C@@H](NC(=O)[C@H](C)NC(=O)[C@H](CCC(=O)O)NC(=O)[C@H](CCC(=O)O)NC(=O)[C@H](CCC(=O)O)NC(=O)[C@H](CC(C)C)NC(=O)[C@H](Cc1ccc(O)cc1)NC(=O)[C@H](CCCCN)NC(=O)[C@H](CO)NC(=O)[C@H](CC(C)C)NC(=O)[C@H](CC(=O)O)NC(=O)[C@H](CO)NC(=O)[C@@H](NC(=O)[C@H](Cc1ccccc1)NC(=O)[C@@H](NC(=O)CNC(=O)[C@H](CCC(=O)O)NC(=O)CNC(=O)[C@@H](N)Cc1c[nH]cn1)[C@@H](C)O)[C@@H](C)O)C(C)C)C(=O)N[C@@H](CCC(=O)O)C(=O)N[C@@H](Cc1ccccc1)C(=O)N[C@@H](CC(C)C)C(=O)N[C@@H](CCCCN)C(=O)NCCOCCOCC(=O)NCCOCCOCC(=O)N[C@@H](Cc1ccc(O)cc1)C(=O)NCC(=O)N[C@@H](Cc1c[nH]c2ccccc12)C(=O)N[C@@H](CC(C)C)C(=O)N[C@@H](CC(=O)O)C(=O)N[C@@H](Cc1ccccc1)C(N)=O [Compound 77, [Tyr13,Leu14,Phe25]Exendin-4(1-27)-Peg3-Peg3-[Leu4]Gastrin6] (H-HGEGTFTSDLSKYLEEEAVRLFIEFLK[AEEA][AEEA]YGWLDF-NH2)
0.026 nM		1.5 h		CC[C@H](C)[C@H](NC(=O)[C@H](Cc1ccccc1)NC(=O)[C@H](CC(C)C)NC(=O)[C@@H]1CCCCNC(=O)CC[C@H](NC(=O)[C@H](CCC(=O)O)NC(=O)[C@H](CCSC)NC(=O)[C@H](CCC(N)=O)NC(=O)[C@H](CCCCN)NC(=O)[C@H](CO)NC(=O)[C@H](CC(C)C)NC(=O)[C@H](CC(=O)O)NC(=O)[C@H](CO)NC(=O)[C@@H](NC(=O)[C@H](Cc2ccccc2)NC(=O)[C@@H](NC(=O)CNC(=O)[C@H](CCC(=O)O)NC(=O)CNC(=O)[C@@H](N)Cc2c[nH]cn2)[C@@H](C)O)[C@@H](C)O)C(=O)N[C@@H](CCC(=O)O)C(=O)N[C@@H](C)C(=O)N[C@@H](C(C)C)C(=O)N1)C(=O)N[C@@H](CCC(=O)O)C(=O)N[C@@H](Cc1c[nH]c2ccccc12)C(=O)N[C@@H](CC(C)C)C(=O)N[C@@H](CCCCN)C(=O)N[C@@H](CC(N)=O)C(=O)NCCOCCOCC(=O)NCCOCCOCC(=O)N[C@@H](Cc1ccc(O)cc1)C(=O)NCC(=O)N[C@@H](Cc1c[nH]c2ccccc12)C(=O)N[C@@H](CC(C)C)C(=O)N[C@@H](CC(=O)O)C(=O)N[C@@H](Cc1ccccc1)C(N)=O [Compound 79, Side chain-cyclo([Glu16,Lys20]Exendin-4(1-28)-Peg3-Peg3-[Leu4]Gastrin6] (H-HGEGTFTSDLSKQMEEEAVKLFIEWLKN[AEEA][AEEA]YGWLDF-NH2; lactam 16-20)
0.05 nM	8.4 nM	3.6 h	superior to the rest	CC[C@H](C)[C@H](NC(=O)[C@H](Cc1ccccc1)NC(=O)[C@H](CC(C)C)NC(=O)[C@H](CCCNC(=N)N)NC(=O)[C@@H](NC(=O)[C@H](C)NC(=O)[C@H](CCC(=O)O)NC(=O)[C@H](CCC(=O)O)NC(=O)[C@H](CCC(=O)O)NC(=O)[C@H](CC(C)C)NC(=O)[C@H](Cc1ccc(O)cc1)NC(=O)[C@H](CCCCN)NC(=O)[C@H](CO)NC(=O)[C@H](CC(C)C)NC(=O)[C@H](CC(=O)O)NC(=O)[C@H](CO)NC(=O)[C@@H](NC(=O)[C@H](Cc1ccccc1)NC(=O)[C@@H](NC(=O)CNC(=O)[C@H](CCC(=O)O)NC(=O)CNC(=O)[C@@H](N)Cc1c[nH]cn1)[C@@H](C)O)[C@@H](C)O)C(C)C)C(=O)N[C@@H](CCC(=O)O)C(=O)N[C@@H](Cc1c[nH]c2ccccc12)C(=O)N[C@@H](CC(C)C)C(=O)N[C@@H](CCCCN)C(=O)NCCOCCOCC(=O)NCCOCCOCC(=O)N[C@@H](Cc1ccc(O)cc1)C(=O)NCC(=O)N[C@@H](Cc1c[nH]c2ccccc12)C(=O)N[C@@H](CC(C)C)C(=O)N[C@@H](CC(=O)O)C(=O)N[C@@H](Cc1ccccc1)C(N)=O [Compound 74, [Tyr13,Leu14]Exendin-4(1-27)-Peg3-Peg3-[Leu4]Gastrin6] (H-HGEGTFTSDLSKYLEEEAVRLFIEWLK[AEEA][AEEA]YGWLDF-NH2)
